Results reported in patent publication US5965126A, “use of mutant alkyltransferases for gene therapy to protect from toxicity of therapeutic alkylating agents” (priority 1996, dated 1999).
Substitutions are numbered along the chain they refer to.

Columns and labels:
[1] = biological target: T1, human AGT mutant P140A (Homo sapiens, UniProt P16455, P140A); test: Inactivation of cellular AGT in CHO cells expressing mutant P140A (CHO-P140A); type: cell-based; conditions: for Increase of ED50 with P140A AGT: relative to control AGT in CHO cells, 240 min
T1 construct: expressed in transfected cells; host or cells: Chinese hamster ovary (CHO) cells
T1 sequence (P16455 1-207 P140A): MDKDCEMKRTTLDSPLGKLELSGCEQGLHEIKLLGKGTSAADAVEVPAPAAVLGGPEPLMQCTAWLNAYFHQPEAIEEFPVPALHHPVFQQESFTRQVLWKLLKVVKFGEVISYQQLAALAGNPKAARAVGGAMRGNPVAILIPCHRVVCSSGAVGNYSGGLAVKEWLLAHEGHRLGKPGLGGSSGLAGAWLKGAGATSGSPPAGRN
Experimental: (§1) The cells were then harvested and the AGT activity determined.
(§2) AGT activity assays--Extracts were prepared and AGT activity was determined as described by Dolan et al. (Dolan, et al., 1990, Proc. Natl. Acad. Sci. U.S.A. 87: 5368-5372) by incubation for 30 min at 37° C. with a [^3 H]methylated calf thymus DNA substrate prepared by reaction of DNA with N-[^3 H]methyl-N-nitrosourea (Amersham Inc., Arlington Hts., Ill.). The AGT activity of the cells was then expressed as fmol of O^6 -methylguanine removed per mg of protein present in the cell extracts. Protein was determined by the method of Bradford (Bradford, 1976, Anal. Biochem. 72: 248-254). […] After 4 h exposure, the cells were harvested and washed with PBS. Cell pellets were stored at -80° C. until assayed. Extracts were then prepared and AGT activity determined. The results were expressed as the percentage of the AGT activity present in cultures to which no drug was added.

[2] = tested on: CHO cells expressing P140A AGT; test: Sensitization to killing by 80 μM BCNU, colony forming assay, CHO cells expressing P140A AGT; type: cell-based, Chinese hamster; conditions: with 80 μM BCNU
Experimental: (§3) FIG. 6a and FIG. 6b show the effect of different concentrations of BG (FIG. 6a) and 5-nitroso-BP (FIG. 6b) on killing of cells by BCNU. Cells were treated with BG or 5-nitroso-BP at the concentrations indicated for 2 h and BCNU at 80 μM was added for 2 h. Medium was replaced with fresh medium also containing the AGT inhibitor but not BCNU for the period of 18 h. The cells were then replated as described in materials and methods and colonies were counted 7-8 days later.
(§4) Cytotoxicity assays--Cell killing was determined using a colony forming assay (Pegg, et al., 1995, Biochem. Pharmacol. 50: 1141-1148; Dolan, et al., 1986, Cancer Res. 46: 4500-4504). The cells were plated using 10^6 cells per 25 cm^2 flask and grown for 24 h. After 2 h of incubation with either BG or 5-nitroso-BP, 80 μM BCNU was added for 2 h. The medium was then replaced with fresh medium also containing the AGT inactivator and the cells were left at 37° C. for an additional 16-18 h. The cells were then replated at densities of 100 to 1000 cells per 25 cm^2 flask and grown for 7-8 days until discrete colonies could be stained and counted. The colonies were washed with 0.9% saline and stained with crystal violet and counted.

[3] = biological target: T2, human AGT mutant G156A (Homo sapiens, UniProt P16455, G156A); test: Inactivation of cellular AGT in CHO cells expressing mutant G156A (CHO-G156A); type: cell-based; conditions: for Increase of ED50 with G156A AGT: relative to control AGT in CHO cells, 240 min
T2 construct: expressed in transfected cells; host or cells: Chinese hamster ovary (CHO) cells
T2 sequence (P16455 1-207 G156A): T1 sequence (P16455 1-207 P140A) with A140P, G156A
Experimental: as §1, §2

[4] = tested on: AGT; conditions: HT29 cells; read-out: Inactivation of AGT, ED50 after 4 h exposure; cited from earlier work
[5] = tested on: CHO cells expressing G156A AGT; test: Sensitization to killing by 80 μM BCNU, colony forming assay, CHO cells expressing G156A AGT; type: cell-based, Chinese hamster
Experimental: as §3, §4

[6] = tested on: CHO cells expressing mutant AGTs; test: Effect of AGT inhibitors alone on colony formation; type: cell-based, Chinese hamster; conditions: inhibitor alone, 18-20 h, cells expressing G156A
Experimental: FIG. 5 show the effect of different concentrations of BG and 5-nitroso-BP on colony formation. BG was added to CHO cells expressing mutant AGTs P140 (.circle-solid.) and G156A (.quadrature.) and 5-nitroso-BP was added to cells expressing G156A (.box-solid.) for 18-20 h. The cells were then replated as described in materials and methods and colonies were counted 7-8 days later.
as §4

[7] = tested on: CHO cells expressing control AGT; test: Sensitization to killing by 80 μM BCNU, colony forming assay, CHO cells expressing control AGT; type: cell-based, Chinese hamster; conditions: with 80 μM BCNU
Experimental: as §3, §4

[8] = biological target: T3, AGT (Homo sapiens, UniProt P16455); test: Inactivation of cellular AGT in CHO cells expressing human AGT (CHO-AGT); type: cell-based; parameters: expressed in transfected cells; host or cells: Chinese hamster ovary (CHO) cells; conditions: read-out: Inactivation of AGT, ED50 after 4 h exposure
T3 sequence (P16455 1-207): T1 sequence (P16455 1-207 P140A) with A140P
Experimental: as §1, §2

[9] = tested on: wtMGMT transduced K562 cells; test: Clonogenic survival in methylcellulose after BG and BCNU, wtMGMT transduced K562 cells; type: cell-based, human
[10] = tested on: CHO cells expressing control or mutant AGT; test: Colony forming assay, killing by BCNU of transfected CHO cells expressing control or mutant AGT; type: cell-based, Chinese hamster; conditions: up to 100 μM BCNU, highest concentration tested
Experimental: (§5) Control CHO cells (.tangle-solidup.) and CHO cells expressing human AGT (.smallcircle.) or its mutants P140A (.circle-solid.) and G156A (.quadrature.) were treated with BCNU at the concentration shown for 2 h. The medium was then replaced. After 16-18 h, the cells were replated as described in Example Section 6 and colonies were counted 7-8 days later.
as §4

[11] = tested on: Control CHO cells; test: Colony forming assay, killing of control CHO cells by BCNU; type: cell-based, Chinese hamster; conditions: 2 h, after 80 μM BCNU, read-out: survival
Experimental: as §5, §4

[12] = tested on: ΔMGMT transduced K562 cells; test: Clonogenic survival in methylcellulose after BG and BCNU, ΔMGMT transduced K562 cells; type: cell-based, human
[13] = tested on: lac Z transduced hematopoietic progenitor cells; test: Clonogenic progenitor survival after BG and BCNU, lac Z transduced CD34+ cells; conditions: 10 μM BG and 10 μM BCNU, lac Z transduced progenitors
Experimental: (§6) CD34^+ Transduction--Peripheral blood mononuclear cells were obtained by apheresis from patients treated with cyclophosphamide and G-CSF. CD34^+ progenitors were isolated using the Ceprate SC Stem Cell Concentrator (Cell Pro, Bothell, Wash.) according to manufacturer's directions. Briefly, cells were washed and incubated with biotinylated anti-CD34 antibody, passed over an avidin column and the bound fraction eluted by gentle agitation. […] At 48 hours, half of the media was removed, cells were pelleted and resuspended in fresh, supplemented media, and non-adherent cells were collected at 96 hours.
(§7) BCNU was dissolved in 100% ethanol and diluted to 10 mM with serum free media and immediately added to the cells. Following a two hour incubation at 37° C., cells were incubated in methylcellulose (Stem Cell Technologies, Inc.) containing either SCF, IL3, hemin, erythropoietin, GM-CSF (for CD34^+ cells) or GM-CSF and IL-3 (for K562 cells) in triplicate. […] After incubation for 7-10 days at 37° C. colonies were enumerated and survival was analyzed at each BCNU dose.

[14] = tested on: ΔMGMT transduced CD34^+ cells; test: Clonogenic progenitor survival after BG and BCNU, ΔMGMT transduced CD34+ cells
Experimental: as §6, §7

[15] = tested on: untransduced K562 cells; test: Clonogenic survival in methylcellulose after BG and BCNU, untransduced K562 cells; type: cell-based; conditions: Homo sapiens
[16] = biological target: T4, ΔAGT (G156A) (Homo sapiens, UniProt P16455, G156A); test: cell-based; conditions: K562, read-out: AGT activity retained
T4 sequence (P16455 1-207 G156A): T1 sequence (P16455 1-207 P140A) with A140P, G156A
Experimental: (§9) AGT Assay--AGT activity was measured as [^3 H]-methyl groups removed from [^3 H] O^6 -methylguanine present in [^3 H]-methylnitrosourea treated alkylated calf thymus DNA. The alkylated [^3 H-methyl] O^6 methylguanine and N^7 methylguanine bases were separated by HPLC and quantified by liquid scintillation. AGT activity was expressed as fmol O^6 mG removed/μg DNA or fmol O^6 removed/mgprotein.

[17] = biological target: T5, wtAGT (Homo sapiens, UniProt P16455); test: BG inactivation of AGT in wtMGMT transduced K562 cells; conditions: 5 μM BG
T5 sequence (P16455 1-207): T1 sequence (P16455 1-207 P140A) with A140P
Experimental: as §9

[18] = biological target: T3, AGT; test: In vitro screen of potential AGT-inhibiting BG analogs; conditions: versus BG and BGs modified at the benzyl ring
Source text: (§8) Another embodiment of the present invention relates to the use of a mutant AGT protein, preferably a human AGT protein, resistant to inactivation by a compound shown to inactivate or at least substantially inactivate the DNA repair function of wild type AGT which include, but again are in no way limited to the O^6 -substituted guanosine and 2' deoxyguanisine compounds disclosed in U.S. Pat. No. 5,352,669 issued to Moschel, et al. on Oct. 4, 1994. […] Furthermore, escalation of the dBG dose was not restricted by solubility as with BG. Therefore, this class of compounds, as exemplified by dBG, will be useful in practicing the present invention whereby the skilled artisan identifies a related AGT mutant which imparts resistance to addition of dBG both in vitro and in vivo.

[19] = tested on: xenograft; test: In vivo xenograft system, potentiation of BCNU
Source text: as §8

[20] = Solubility in aqueous media; type: physicochemical
Source text: as §8

[21] = Homo sapiens, K562, read-out: BCNU IC50, clonogenic survival
[22] = Homo sapiens, K562, read-out: BCNU IC90, clonogenic survival

SMILES: Nc1nc(N)c(N=O)c(OCc2ccccc2)n1 [5-nitroso-BP, 2,4-diamino-6benzyloxy-5-nitrosopyrimidine]
- IC50 ([1]; CHO-P140A cells, read-out: Inactivation of AGT, ED50 after 4 h exposure): 1250 nM
- Increase of ED50 with P140A AGT [1]: 25 fold
- concentration needed to reduce colony formation to <1 per 1000 cells plated [2]: More than 25 μM
- IC50 ([3]; CHO-G156A cells, read-out: Inactivation of AGT, ED50 after 4 h exposure): 5 µM
- Increase of ED50 with G156A AGT [3]: 100 fold
- IC50 [4]: 20 nM
- concentration required to sensitize cells to BCNU ([5]; with 80 μM BCNU): > 40 µM
- concentrations reducing colony formation [6]: above 30 μM
- concentration required to reduce colony formation to <1 per 1000 cells plated [7]: about 5 μM
- IC50 [8]: 50 nM

SMILES: O=NN(CCCl)C(=O)NCCCl [BCNU, N,N'-bis(2-cholorethyl)-N-nitrosourea]
- clonogenic survival ([9]; 30 μM BCNU & BG, wtMGMT K562 cells): < 1%
- IC50 [9, 21]: 4 µM
- IC90 [9, 22]: 16 µM
- killing by BCNU [10]: completely resistant
- viability at 80 µM [11]: < 0.1%
- clonogenic survival ([12]; 30 μM BCNU & BG, ΔMGMT K562 cells): 20%
- IC50 [12, 21]: 11.3 µM
- IC90 [12, 22]: > 30 µM
- cells killed [13]: greater than 99%
- cells resistant ([14]; 10 μM BG and 10 μM BCNU, ΔMGMT transduced CD34+): approximately 25%
- colonies very resistant to BG & BCNU ([14]; ΔMGMT transduced CD34+ derived colonies): Over 30%
- IC50 ([15]; K562, read-out: BCNU IC50, clonogenic survival): 1300 nM
- IC90 ([15]; K562, read-out: BCNU IC90, clonogenic survival): 5 µM

SMILES: Nc1nc(OCc2ccccc2)c2[nH]cnc2n1 [BG, O^6 -benzylguanine]
- Increase of ED50 with P140A AGT [1]: 30 fold
- activity at 5 µM [16]: > 90%
- concentration needed to reduce colony formation to <1 per 1000 cells plated [2]: 200 µM
- Increase of ED50 with G156A AGT [3]: 60 fold
- AGT activity [17]: undetectable
- IC50 [4]: 50 nM
- survival under combined BG and BCNU ([5]; 350 μM BG with 80 μM BCNU): substantial survival
- concentration required to reduce colony formation to <1 per 1000 cells plated [7]: 50 µM

SMILES: Nc1nc(OCc2ccccc2)c2ncn([C@H]3C[C@H](O)[C@@H](CO)O3)c2n1 [dBG]
- potency relative to BG (less potent) [18]: 10 fold
- BCNU-potentiating effects compared with BG [19]: quite comparable
- solubility in aqueous media compared to other BGs [20]: superior solubility
